Source: patent publication US6242445A, “Benzimidazole derivative” (Kureha Chemical Industry Co., Ltd., priority 1998, dated 2001)

Key:
[1] = test system: ICR female mice; experiment: Acute toxicity (single oral administration); type: in vivo
Procedure: Acute toxicity was evaluated in this Example. As a compound to be examined, 2-ethoxy-1-[[4'-(2"-N,N-dimethylamino-ethoxycarbonyl)phenyl]methyl]-1H-benzimidazole-6-carboxylic acid morpholide (Compound No. 13) prepared in Example 6 was used.
Five-week-old ICR female mice (5 mice per group) were bredfor acclimation for a week. Then, Compound No. 13 was dissolved or suspended in 0.5% methylcellulose aqueous solution, and orally administered to the mice in a single dosage (500 mg/kg). […] Further, as to Compound No. 55, Compound No. 57, Compound No. 59, and Compound No. 65 prepared in Examples 26, 28, 31, and 23, respectively, acute toxicity was also evaluated.

[2] = target: T1, angiotensin II receptor subtype 1 (AT1) (Oryctolagus cuniculus, UniProt P34976); experiment: Binding assay, angiotensin II receptor subtype 1 (AT1); design: species or system rabbits
T1 construct: from adrenal glands in rabbits; from tissue; host or cells: adrenal glands of rabbits
T1 sequence (P34976 1-359): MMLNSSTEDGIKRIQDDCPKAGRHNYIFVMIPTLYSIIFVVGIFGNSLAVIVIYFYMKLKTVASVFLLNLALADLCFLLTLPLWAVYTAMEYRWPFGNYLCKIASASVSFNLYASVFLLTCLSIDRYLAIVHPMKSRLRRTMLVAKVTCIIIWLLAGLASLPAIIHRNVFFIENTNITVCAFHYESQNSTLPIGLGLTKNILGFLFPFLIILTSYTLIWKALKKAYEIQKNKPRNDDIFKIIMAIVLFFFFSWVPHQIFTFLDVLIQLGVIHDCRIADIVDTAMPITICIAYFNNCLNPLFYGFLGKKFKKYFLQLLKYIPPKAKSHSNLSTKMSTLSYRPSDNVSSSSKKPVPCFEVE
Procedure: In this Example, a binding assay was carried out. That is, the affinity to the angiotensin II receptor subtype 1 orsubtype 2 was evaluated in accordance with the method described in Biochem. Pharmacol., 33, 4057-4062 (1984).
Specifically, the measurement of the total binding in the presence of each drug was performed as follows:
A mixture (final volume=0.25 ml) of a drug in a given concentration (the drug was dissolved in DMSO, and diluted to a double volume with a buffer attached to a drug discovery system to prepare a sample for the assay; 0.025 ml), a tracer (0.025 ml), and receptors (0.2 ml) was incubated [in the case of the angiotensin II receptor subtype 1 (AT1), at room temperature for 3 hours, and in the case of the subtype 2 (AT2), at 37° C. for 1 hour]. Then, the reaction mixture was filtered with suction (a GF/C filter was used in AT1, and a GF/B filter was used in AT2). The filter papers after filtration with suction (the tracer bound to the receptors) were counted by a γ-well counter (ARC-500, Aloka). The non-specific bindings were measured by repeating the above method, except that a large excess amount of a displacer was added. The specific binding of the drug in the given concentration was calculated by subtracting the non-specific binding from the total binding, respectively.
tracer: ^3 H-angiotensin II

[3] = test system: kidney disease model rats; experiment: Action to lower blood pressure in kidney disease model rats; type: in vivo, Sprague-Dawley female rats; settings: 20 mg/kg oral; for action of lowering the blood pressure: in comparison with the control group; for Blood pressure: systolic, tail cuff, average, two days after administration, control 210
Procedure: (§1) In this Example, an action to lower blood pressure was evaluated. That is, each of 2-ethoxy-1-[[4'- (2'-N,N-dimethylamino-ethoxycarbonyl) phenyl]methyl]-1H-benzimidazole-6-carboxylic acid morpholide (Compound No. 13) prepared in Example 6, 2-ethoxy-1-[[4'-(2"-morpholinoethoxycarbonyl)-phenyl]methyl]-1H-benzimidazole-6-carboxylic acid piperidinamide (Compound No. 57) prepared in Example 28, or the reference substance was forcibly orally administered to kidney disease model rats, and the action of lowering the blood pressure was observed. The kidney disease model rats were prepared by a ligature of branches of renal artery in accordance with a conventional method. Namely, the left hilum renalis of Sprague-Dawley female rats was exposed under anesthesia, and one of four secondary branches of the renal artery was left unligated, while the remaining three branches were ligated, respectively. After a week, the hilum renalis (artery, vein, and ureter) of the right kidney were further ligated to thereby prepare rats whose renal function was lowered to approximately 1/8 of the normal function. Each group consisted of eight rats. The drugs to be tested (20 mg/kg) were administered to each administering group, and only water was administered to a control group. Two days after the administration, the systolic blood pressure was measured by the tail cuff method using a blood pressure measuring apparatus (UR^5000; Ueda).

[4] = test system: kidney disease model rats; experiment: Survival time of kidney diseased animals; type: in vivo, Sprague-Dawley female rats; settings: for survival time / Average survival time: 20 mg/kg/day; for Average survival time: observation period eight weeks (upper limit), control 5.0; for effect on survival compared with reference substance: vs DuP753
Procedure: as §1
In this Example, an action to survival time of kidney diseased animals was evaluated. As compounds to be examined, 2-ethoxy-1-[[4'-(2"-N,N-dimethylamino-ethoxycarbonyl)-phenyl]methyl]-1H-benzimidazole-6-carboxylic acid morpholide (Compound No. 13) prepared in Example 6, and 2-ethoxy-1-[[4'-(2"-morpholinoethoxycarbonyl)phenyl]methyl]-1H-benzimidazole-6-carboxylic acid piperidinamide (Compound No. 57) prepared in Example 28 were used.
The kidney disease model rats were prepared as in Example 38. Fifteen groups (8 rats per group) were prepared in a manner such that there was no major difference between the groups in the serum creatinine value and the blood urea nitrogen value indicating renal function. The rats in each group were allowed to freely take up food and water. […] To the rats in the control group, only water was forcibly orally administered every day. If kidney diseases are aggravated, the rat will die of uremia. Thus, the survival time was observed as a comprehensive indication of the improvement of the effect on the kidney diseases. The observation period was eight weeks. Thus if all rats survived, the average survival time is eight weeks, and is an upper limit.

[5] = test system: SHR rats; experiment: Action on weight of heart in SHR rats; type: in vivo; settings: 20 weeks; for Relative weight ratio / Heart weight / Blood pressure / Body weight: 20 mg/kg oral in drinking solution, average±standard deviation; for Relative weight ratio: control 0.338 ± 0.012; for Heart weight: control 1.430 ± 0.082; for Blood pressure: control 224 ± 49; for Body weight: control 423 ± 17; for heart weight based on hypercardia / lowering of blood pressure / myocardiopathy: 20 mg/kg
Procedure: In this Example, an action on a weight of a heart was evaluated. More particularly, 21-week-old SHR rats were divided into a control group (8 rats) and a test group (7 rats). The rats in the test group were allowed to freely drink a solution prepared by dissolving 2-ethoxy-1-[[4'-(2"-N,N-dimethylamino-ethoxycarbonyl)phenyl]methyl]-1H-benzimidazole-6-carboxylic acid morpholide (Compound No. 13) prepared in Example 6 or 2-ethoxy-1-[[4'-(2'-morpholinoethoxycarbonyl)-phenyl]methyl]-1H-benzimidazole-6-carboxylic acid piperidinamide (Compound No. 57) prepared in Example 28 for 20 weeks (20 mg/kg). After the oral administration was finished, the heart was taken, and the weight of the heart was measured.

Row | Compound | Number of deaths/number of survivals ([1]; 500 mg/kg single oral, deaths observed for 6 days) | inhibitory effect / binding activity / antagonism at angiotensin II receptor [2] | action of lowering the blood pressure [3] | Blood pressure [3] [mmHg] | survival time [4] | Average survival time [4] [weeks] | effect on survival compared with reference substance [4] | Relative weight ratio [5] [%] | Heart weight [5] [g] | Blood pressure [5] [mmHg] | Body weight [5] [g] | heart weight based on hypercardia [5] | lowering of blood pressure [5] | myocardiopathy [5] | Number of deaths/number of survivals ([1]; mouse, in vivo)
1 | CCOc1nc2ccc(C(=O)N3CCOCC3)cc2n1Cc1ccc(C(=O)OCCN(C)C)cc1 [Compound No. 13, 2-ethoxy-1-[[4'-(2"-N,N-dimethylaminoethoxycarbonyl)phenyl]methyl]-1H-benzimidazole-6-carboxylic acid morpholide] | 0/5 | do not substantially exhibit a conventional angiotensin II receptor antagonism | an influence on the blood pressure was not substantially observed | 208 | clearly prolonged the survival time | 7.5 | comparable or superior to that of the reference substance | 0.328 ± 0.007 | 1.392 ± 0.034 | 232 ± 12 | 424 | significantly reduced | without inducing a lowering of blood pressure | suppresses myocardiopathy | –
2 | CCOc1nc2ccc(C(=O)N3CCCCC3)cc2n1Cc1ccc(C(=O)OCCN2CCOCC2)cc1 [Compound No. 57, 2-ethoxy-1-[[4'-(2"-morpholinoethoxycarbonyl)phenyl]methyl]-1H-benzimidazole-6-carboxylic acid piperidinamide] | – | do not substantially exhibit a conventional angiotensin II receptor antagonism | an influence on the blood pressure was not substantially observed | 205 | clearly prolonged the survival time | 7.5 | comparable or superior to that of the reference substance | 0.324 ± 0.012 | 1.390 ± 0.077 | 207 ± 14 | 429 | significantly reduced | without inducing a lowering of blood pressure | suppresses myocardiopathy | 0/5
